Measurements: patent US11136324B2, “Substituted imidazoles as apoptosis signal regulating kinase 1 inhibitors” (Jiangsu Hansoh Pharmaceutical Group Co., Ltd., priority 2017, dated 2021)

Assays:
ASK1 kinase = ASK1 kinase (Homo sapiens (Human), UniProt Q99683); assay: ASK1 enzymatic test (TR-FRET); assay type: biochemical; conditions: ASK1 kinase activity
Protocol: In this test, the fluorescence-resonance energy transfer (TR-FRET) method was used to determine the inhibition effect of the test compounds on ASK1 kinase activity, and the half maximal inhibitory concentration IC50 of the compounds on ASK1 kinase activity was obtained.
1) 1˜5 μL of ASK1 enzyme solution was added to a 384-well plate, and the final concentration of the enzyme was 0.220 nM.
2) 1˜5 μL of gradient-diluted compound solution was added.
3) 1˜5 μL of a substrate mixture containing substrate polypeptides (final concentration: 100˜5000 nM) and ATP (final concentration: 100˜1000 uM) were added.
4) The mixture was incubated at room temperature for 0.5 to 5 hours.
5) 10 μL of EDTA and test solution containing labeled antibody were added, and the plate was incubated at room temperature for 2 to 24 hours.
6) The fluorescence signal value of each well was determined by a microplate reader at about 615 nm and 665 nm.
7) The inhibition rate was calculated by the fluorescence signal value.
8) The IC50 of the compound was obtained by curve fitting according to the inhibition rate at different concentrations.

[1] = test system: non-alcoholic steatohepatitis mice induced by HFD (high fat diet)+CCl4; assay: Effect on serum ALT and AST levels of non-alcoholic steatohepatitis mice induced by HFD+CCl4; assay type: in vivo, C57BL/6 mice; set-up: concentration or dose not given beside the values; conditions: oral once a day for 28 days, versus solvent control group
From the text: 3. The effect of the compounds of the present invention on the ALT and AST levels of non-alcoholic steatohepatitis mice induced by HFD (high fat diet)+CCl4
The object of this test example is to determine whether the compounds of the present invention can down-regulate the ALT and AST levels in the serum of non-alcoholic steatohepatitis mice or not.
C57BL/6 mice were adaptively fed in a SPF (specific pathogen free) barrier for 3 to 7 days, and then fed with HFD feed with a feeding cycle of 8 weeks. At the fifth week of HFD feeding, the HFD-induced mice were randomly grouped according to body weight, and orally administrated with CCl4 twice a week for 4 weeks. At the day of modeling with CCl4, the test compounds were orally administrated once a day continuously for 28 days. The solvent control group was administrated with the corresponding solvent of the test compounds with an administration volume of 10 mL/kg. The mice were euthanized with CO2 48 hours after the last administration of CCl4, and the non-anticoagulated venous blood was collected from the heart. The whole blood was left to stand at room temperature for at least 30 minutes, and then centrifuged for 5 minutes at 4° C. at 5000 rpm to separate the serum. The serum was dispensed into two portions in 1.5 mL EP tubes, and stored at −80° C. for later use.
The ALT and AST levels in mice serum were determined using the alanine aminotransfease (ALT/GPT) kit and aspartate aminotransferase (AST/GOT) kit. The ALT (or AST) test substrate solution was preheated in a 37° C. incubator; 20 μL of substrate solution were pipetted into a 96-well plate, and 5 μL of serum were pipetted into the 96-well plate as test well. After mixing well, the plate was sealed using a sealing film, and placed into the 37° C. incubator to incubate for 30 min. The ALT (or AST) standard curve was formulated, and 25 μL of which were pipetted into the 96-well plate; 20 μL of […] were pipetted into the 96-well plate as control well; 20 μL of 2,4-dinitrophenylhydrazine solution were added to each well. After mixing well, the plate was sealed using a sealing film, and placed into the 37° C. incubator to incubate for 20 min. 200 μL of 0.4 M NaOH solution were added to each well. The plate was placed on a shaker to shake for 15 min, and then measured on the BioTek Synergy H1 instrument using OD detection program at a wavelength of 510 nm. The absolute OD value was calculated from the OD value of each well. Absolute OD value=OD value of measured well−OD value of control well. The absolute OD value was taken into the standard curve to obtain the ALT (or AST) content of the sample. Samples that exceed the standard curve range should be re-tested after diluting the serum to an appropriate concentration. Data processing: (% ALT reduction rate)=(solvent control group−test compound)/solvent control group×100%; (% AST reduction rate)=(solvent control group−test compound)/solvent control group×100%.

[2] = Pharmacokinetic (PK) assay in mice; assay type: in vivo; conditions: Balb/c male mice, single intragastric administration, 5 mg/kg, plasma; for AUC(0-t) / AUC(0-inf) / half-life / MRT / Cmax: mouse, po; for AUC(0-t): read-out: Area under curve AUC0-t; for AUC(0-inf): read-out: Area under curve AUC0-∞; for half-life: read-out: Half-life t1/2 (converted); for MRT: read-out: Mean residence time MRT; for Cmax: read-out: Plasma concentration Cmax
Protocol: 2. Pharmacokinetic (PK) Assay in Mice
The pharmacokinetic test of the preferred examples of the present invention in mice was carried out in Balb/c male mice (Shanghai Jiesijie Laboratory Animal Co., LTD).
Administration mode: single intragastric administration.
Administration dosage: 5 mg/10 ml/kg.
Formulation: 0.5% CMC-Na, ultrasonic dissolution.
Sampling points: 0.5, 1, 2, 4, 6, 8 and 24 hours after administration.
1) 0.1 mL of blood was taken from the orbit, placed in a K2EDTA tube, and centrifuged for 5˜20 min at room temperature at 1000˜3000×g to separate the plasma, which was then stored at −80° C.
2) 160 μL of acetonitrile was added to 40 μL of plasma sample for precipitation, and then the mixture was centrifuged for 5˜20 minutes at 500˜2000×g.
3) 100 μL, of processed supernatant was taken and analyzed by LC/MS/MS assay to determine the concentration of the test compound.
LC-MS/MS Assay: • Liquid chromatography condition: Shimadzu LC-20AD pump • Mass spectrometry condition: AB Sciex API 4000 mass spectrometer • Chromatographic column: phenomenex Gemiu 5 μm C18 50×4.6 mm • Mobile phase: solution A was 0.1% aqueous formic acid solution, and solution B was acetonitrile • Flow rate: 0.8 mL/min • Elution time: 0-3.5 minutes gradient elution
The main parameters were calculated using WinNonlin 6.1.

Chain of ASK1 kinase (Q99683 whole entry): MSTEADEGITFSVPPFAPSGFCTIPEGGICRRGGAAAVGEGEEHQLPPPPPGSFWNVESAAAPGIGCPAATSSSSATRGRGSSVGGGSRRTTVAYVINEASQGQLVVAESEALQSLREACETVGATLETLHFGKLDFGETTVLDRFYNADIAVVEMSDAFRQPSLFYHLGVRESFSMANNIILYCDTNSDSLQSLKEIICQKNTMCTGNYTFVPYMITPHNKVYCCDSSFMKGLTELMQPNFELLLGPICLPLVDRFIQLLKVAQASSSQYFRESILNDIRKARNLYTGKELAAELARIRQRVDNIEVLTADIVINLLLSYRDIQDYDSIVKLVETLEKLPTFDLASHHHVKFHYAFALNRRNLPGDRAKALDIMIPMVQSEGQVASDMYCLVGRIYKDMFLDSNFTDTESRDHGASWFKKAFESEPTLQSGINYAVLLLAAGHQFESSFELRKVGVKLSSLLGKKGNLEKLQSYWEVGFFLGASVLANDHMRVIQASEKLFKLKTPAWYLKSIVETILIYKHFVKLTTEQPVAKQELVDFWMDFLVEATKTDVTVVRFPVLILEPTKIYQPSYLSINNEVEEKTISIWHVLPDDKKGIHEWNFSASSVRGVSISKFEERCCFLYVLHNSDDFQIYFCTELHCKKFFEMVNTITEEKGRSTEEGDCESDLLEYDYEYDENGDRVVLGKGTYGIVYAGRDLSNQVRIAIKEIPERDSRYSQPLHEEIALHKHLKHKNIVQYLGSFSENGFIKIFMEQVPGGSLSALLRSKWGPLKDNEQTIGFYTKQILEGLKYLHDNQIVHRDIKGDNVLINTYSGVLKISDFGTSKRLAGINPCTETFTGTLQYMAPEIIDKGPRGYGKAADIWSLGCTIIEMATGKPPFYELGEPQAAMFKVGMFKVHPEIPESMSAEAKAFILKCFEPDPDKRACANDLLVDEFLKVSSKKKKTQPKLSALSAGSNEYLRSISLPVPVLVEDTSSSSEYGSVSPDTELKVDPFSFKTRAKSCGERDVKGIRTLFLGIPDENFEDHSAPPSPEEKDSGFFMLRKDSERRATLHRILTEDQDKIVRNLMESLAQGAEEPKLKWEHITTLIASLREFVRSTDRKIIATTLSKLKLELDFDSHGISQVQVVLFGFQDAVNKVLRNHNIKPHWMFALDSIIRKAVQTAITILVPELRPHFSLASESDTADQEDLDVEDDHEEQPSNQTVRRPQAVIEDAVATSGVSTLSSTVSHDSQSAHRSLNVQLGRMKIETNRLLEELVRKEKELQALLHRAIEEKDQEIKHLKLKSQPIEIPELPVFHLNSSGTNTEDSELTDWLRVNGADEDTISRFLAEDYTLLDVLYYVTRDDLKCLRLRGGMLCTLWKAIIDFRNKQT

SMILES	IC50 (ASK1 kinase) [nM]	ALT(U/L) reduction rate (%) [1] [%]	AST(U/L) reduction rate (%) [1] [%]	Peak time tmax [2] [h]	AUC(0-t) [2] [ng·h/mL]	AUC(0-inf) [2] [ng·h/mL]	half-life [2] [h]	MRT [2] [h]	Cmax [2] [ng/mL]
Cc1cc2c(cc1-n1cnc(C3CC3)c1)C(=O)N(c1cccc(-c3nnc4n3C3(CC4)CC3)n1)C2 [Example 64, 6-(4-Cyclopropyl-1H-imidazol-1-yl)-2-(6-(6′,7′-dihydrospiro[cyclopropane-1,5′-pyrrolo[2,1-c][1,2,4]triazol]-3′-yl)pyridin-2-yl)-5-methylisoindolin-1-one]	5.5	51	47						
Cc1cc(F)c(C(=O)Nc2cccc(-c3nncn3C(C)C)n2)cc1-n1cnc(C2CC2)c1 [GS-4997, reference compound]		40	35						
CC[C@@H]1CCc2nnc(-c3cccc(NC(=O)c4cc(-n5cnc(C6CC6)c5)c(C)cc4F)n3)n21 [Example 55, (R)-5-(4-Cyclopropyl-1H-imidazol-1-yl)-N-(6-(5-ethyl-6,7-dihydro-5H-pyrrolo[2,1-c][1,2,4]triazol-3-yl)pyridin-2-yl)-2-fluoro-4-methylbenzamide]	1.9	56	55	0.5	31500	31500	1.4	2.9	9330
Cc1cc(F)c(C(=O)Nc2cccc(-c3nnc4n3C3(CC4)CC3)n2)cc1-n1cnc(C2CC2)c1 [Example 61, 5-(4-Cyclopropyl-1H-imidazol-1-yl)-N-(6-(6′,7′-dihydrospiro[cyclopropane-1,5′-pyrrolo[2,1-c][1,2,4]triazol]-3′-yl)pyridin-2-yl)-2-fluoro-4-methylbenzamide]	1.9	50	54	1	68600	68800	2.7	4.5	11400
Cc1cc(F)c(C(=O)Nc2cccc(-c3nnc4n3[C@H](C(F)(F)F)CC4)n2)cc1-n1cnc(C2CC2)c1 [Example 40, (S)-5-(4-Cyclopropyl-1H-imidazol-1-yl)-2-fluoro-4-methyl-N-(6-(5-(trifluoromethyl)-6,7-dihydro-5H-pyrrolo[2,1-c][1,2,4]triazol-3-yl)pyridin-2-yl)benzamide]	1.9	50	65	0.5	26800	28300	1.7	2.7	10700
Cc1cc(F)c(C(=O)Nc2cccc(-c3nnc4n3C(C)(C)CC4)n2)cc1-n1cnc(C2CC2)c1 [Example 10, 5-(4-Cyclopropyl-1H-imidazol-1-yl)-N-(6-(5,5-dimethyl-6,7-dihydro-5H-pyrrolo[2,1-c][1,2,4]triazol-3-yl)pyridin-2-yl)-2-fluoro-4-methylbenzamide]	1	50	46	0.5	32400	32400	1.6	3	8990
C=C[C@@H]1CCc2nnc(-c3cccc(NC(=O)c4cc(-n5cnc(C6CC6)c5)c(C)cc4F)n3)n21 [Example 37, (S)-5-(4-Cyclopropyl-1H-imidazol-1-yl)-2-fluoro-4-methyl-N-(6-(5-vinyl-6,7-dihydro-5H-pyrrolo[2,1-c][1,2,4]triazol-3-yl)pyridin-2-yl)benzamide]	3.5	57	62	0.5	43900	48000	2.1	3.4	11700
Cc1cc2c(cc1-n1cnc(C3CC3)c1)C(=O)N(c1cccc(-c3nnc4n3[C@H](C(F)(F)F)CC4)n1)C2 [Example 65, (S)-6-(4-Cyclopropyl-1H-imidazol-1-yl)-5-methyl-2-(6-(5-(trifluoromethyl)-6,7-dihydro-5H-pyrrolo[2,1-c][1,2,4]triazol-3-yl)pyridin-2-yl)isoindolin-1-one]	9.4	46	52						
C#C[C@@H]1CCc2nnc(-c3cccc(NC(=O)c4cc(-n5cnc(C6CC6)c5)c(C)cc4F)n3)n21 [Example 43, (S)-5-(4-Cyclopropyl-1H-imidazol-1-yl)-N-(6-(5-ethynyl-6,7-dihydro-5H-pyrrolo[2,1-c][1,2,4]triazol-3-yl)pyridin-2-yl)-2-fluoro-4-methylbenzamide]	1.9	65	58	0.5	80900	81900	3.9	5.3	12200
Cc1cc(F)c(C(=O)Nc2cccc(-c3nnc4n3[C@H](C)CC4)n2)cc1-n1cnc(C(C)(C)C)c1 [Example 15, (R)-5-(4-(tert-Butyl)-1H-imidazol-1-yl)-2-fluoro-4-methyl-N-(6-(5-methyl-6,7-dihydro-5H-pyrrolo[2,1-c][1,2,4]triazol-3-yl)pyridin-2-yl)benzamide]	1.4	54	58						
